Reference: US20260137819A1 (Radionetics Oncology, Inc., priority 2022, published 2026)
Starred links: 1 amine or outer side, 2 acyl side, 3 side chain; linkers in the order of their positions; H or OH if unused. Non-standard residues stand in square brackets, D forms with d. Residues, ends and D or L forms follow the SMILES beside them. Groups on a side chain read outwards from the residue. *: point of attachment. X1 = COc1cc2c(cc1-c1cccc(N*)c1)-c1c(c(C(=O)N3CCOCC3(C)C)nn1-c1cc(Cl)cc(Cl)c1)CO2; DOTA = O=C(O)CN1CCN(CC(=O)O)CCN(CC(=O)*)CCN(CC(=O)O)CC1; Suc = O=C(CCC(=O)[*:2])[*:1]

Each compound was assayed against T1, human follicle-stimulating hormone receptor (FSHR) (Homo sapiens, UniProt P23945) (assay: Measurement of agonist cAMP production by activation of human FSHR). Details: CHO-K1 human FSHR cells, 30 minutes at 37° C., HTRF cAMP kit; read-out: hFSHR Agonist cAMP EC50.
T1 construct: host or cells: CHO-K1
T1 sequence (P23945 18-695): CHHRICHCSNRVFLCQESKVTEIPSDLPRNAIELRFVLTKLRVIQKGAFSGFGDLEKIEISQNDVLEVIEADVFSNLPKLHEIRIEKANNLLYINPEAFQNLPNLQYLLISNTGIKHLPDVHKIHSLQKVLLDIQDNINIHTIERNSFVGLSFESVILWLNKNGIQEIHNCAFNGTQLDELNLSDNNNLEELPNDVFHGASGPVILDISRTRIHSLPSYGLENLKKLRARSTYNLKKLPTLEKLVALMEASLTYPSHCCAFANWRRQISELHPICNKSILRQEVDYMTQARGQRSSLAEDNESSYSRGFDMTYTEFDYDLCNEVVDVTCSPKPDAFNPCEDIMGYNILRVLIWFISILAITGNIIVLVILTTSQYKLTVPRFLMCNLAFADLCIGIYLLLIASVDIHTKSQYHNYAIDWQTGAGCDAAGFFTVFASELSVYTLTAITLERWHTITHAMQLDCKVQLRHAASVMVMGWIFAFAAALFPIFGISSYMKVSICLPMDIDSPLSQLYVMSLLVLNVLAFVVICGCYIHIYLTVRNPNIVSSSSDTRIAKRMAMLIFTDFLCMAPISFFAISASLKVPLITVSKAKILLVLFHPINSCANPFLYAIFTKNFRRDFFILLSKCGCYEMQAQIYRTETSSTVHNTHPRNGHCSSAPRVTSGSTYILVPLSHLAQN
Type: cell-based
Summary of the method: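 cAMP output was measured by HTRF after 30 min at 37 °C agonist exposure (0–10,000 nM final) in stably FSHR-transfected CHO-K1 cells. Lysate cAMP was read off a standard curve and fitted to obtain half-maximal EC50.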

**Q.** How did the EC50 turn out when `COc1cc2c(cc1-c1cccc(NC(=O)CCOCCOCCOCCOCCNC(=O)CCC(C(=O)O)N3CCN(CC(=O)O)CCN(CC(=O)O)CCN(CC(=O)O)CC3)c1)-c1c(c(C(=O)N3CCOCC3(C)C)nn1-c1cc(Cl)cc(Cl)c1)CO2` (centres unmarked) [Compound 28] was run?
**A.** < 10 nM

**Q.** With `COc1cc2c(cc1-c1cccc(NC(=O)CCOCCOCCOCCOCCOCCOCCNC(=O)CN3CCN(CC(=O)O)CCN(CC(=O)O)CCN(CC(=O)O)CC3)c1)-c1c(c(C(=O)N3CCOCC3(C)C)nn1-c1cc(Cl)cc(Cl)c1)CO2` [Compound 16A] as the compound, how does the EC50 read?
**A.** < 10 nM

**Q.** Which EC50 does the source give for `COc1cc2c(cc1-c1cncc(NCCCNC(=O)CCOCCNC(=O)CN3CCN(CC(=O)O)CCN(CC(=O)O)CCN(CC(=O)O)CC3)c1)-c1c(c(C(=O)N3CCOCC3(C)C)nn1-c1cc(F)cc(F)c1)CO2` [Compound 62] here?
**A.** 10 to 100 nM

**Q.** `COc1cc2c(cc1-c1cncc(NC(=O)CNC(=O)CC[C@@H](NC(=O)CN3CCN(CC(=O)O)CCN(CC(=O)O)CCN(CC(=O)O)CC3)C(=O)O)c1)-c1c(c(C(=O)N3CCOCC3(C)C)nn1-c1cc(F)cc(F)c1)CO2` [Compound 61, (R)-2,2′,2″-(10-(2-((1-carboxy-4-((2-((5-(1-(3,5-difluorophenyl)-3-(3,3-dimethylmorpholine-4-carbonyl)-7-methoxy-1,4-dihydrochromeno[4,3-c]pyrazol-8-yl)pyridin-3-yl)amino)-2-oxoethyl)amino)-4-oxobutyl)amino)-2-oxoethyl)-1,4,7,10-tetraazacyclododecane-1,4,7-triyl)triacetic acid] was tested. Which EC50 did it give?
**A.** 10 to 100 nM

**Q.** How did the EC50 turn out when `COc1cc2c(cc1-c1cccc(NC(=O)CCC(=O)N[C@H](C)C(=O)N[C@H](CCC(=O)O)C(=O)N[C@H](CCC(=O)O)C(=O)N[C@H](CCC(=O)O)C(=O)N[C@H](CCC(=O)O)C(=O)N[C@H](CCCCNC(=O)CN3CCN(CC(=O)O)CCN(CC(=O)O)CCN(CC(=O)O)CC3)C(=O)N[C@H](C)C(N)=O)c1)-c1c(c(C(=O)N3CCOCC3(C)C)nn1-c1cc(Cl)cc(Cl)c1)CO2` [Compound 92, 2,2′,2″-(10-((8R,11R,14R,17R,20R,23R)-8-(((R)-1-amino-1-oxopropan-2yl)carbamoyl)-11,14,17,20-tetrakis(2-carboxyethyl)-28-((3-(1-(3,5-dichlorophenyl)-3-(3,3-dimethylmorpholine-4-carbonyl)-7-methoxy-1,4-dihydrochromeno[4,3-c]pyrazol-8-yl)phenyl)amino)-23-methyl-2,10,13,16,19,22,25,28-octaoxo-3,9,12,15,18,21,24-heptaazaoctacosyl)-1,4,7,10-tetraazacyclododecane-1,4,7-triyl)triacetic acid] ({X1-Suc}-[dA][dE][dE][dE][dE][dK](DOTA)[dA]-NH2) was run?
**A.** 10 to 100 nM

**Q.** How did the EC50 turn out when `COc1cc2c(cc1-c1cncc(OCCCNC(=O)[C@@H](CCC(=O)O)NC(=O)CCNC(=O)CN3CCN(CC(=O)O)CCN(CC(=O)O)CCN(CC(=O)O)CC3)c1)-c1c(c(C(=O)N3CCCN(C(=O)C4CCC4)CC3)nn1-c1cccs1)CO2` [Compound 77] was run?
**A.** 10 to 100 nM

**Q.** How did the EC50 turn out when `COc1cc2c(cc1-c1cccc(NC(=O)CCC(=O)NCCCC[C@@H](NC(=O)[C@@H](C)NC(=O)[C@@H](CCC(=O)O)NC(=O)[C@@H](C)NC(=O)CN3CCN(CC(=O)O)CCN(CC(=O)O)CCN(CC(=O)O)CC3)C(=O)N[C@H](C)C(=O)N[C@H](CCC(=O)O)C(=O)N[C@H](C)C(N)=O)c1)-c1c(c(C(=O)N3CCOCC3(C)C)nn1-c1cc(Cl)cc(Cl)c1)CO2` [Compound 86, (4R,7R,10R,13R,16R)-4-(((R)-1-amino-1-oxopropan-2-yl)carbamoyl)-10-(4-(4((3-(1-(3,5-dichlorophenyl)-3-(3,3-dimethylmorpholine-4-carbonyl)-7-methoxy-1,4-dihydrochromeno|4,3-clpyrazol-8-yl)phenyl)amino)-4-oxobutanamido)butyl)-7,13-dimethyl-6,9,12,15-tetraoxo-16-((R)-2-(2-(4,7,10-tris(carboxymethyl)-1,4,7,10-tetraazacyclododecan-1-yl)acetamido)propanamido)-5,8,11,14-tetraazanonadecanedioic acid] ({DOTA}-[dA][dE][dA][dK]([Suc-X1])[dA][dE][dA]-NH2) was run?
**A.** 10 to 100 nM

**Q.** For `COc1cc2c(cc1-c1cncc(NC(=O)CNC(=O)CC[C@@H](NC(=O)CNC(=O)CN3CCN(CC(=O)O)CCN(CC(=O)O)CCN(CC(=O)O)CC3)C(=O)O)c1)-c1c(c(C(=O)N3CCOCC3(C)C)nn1-c1cc(Cl)cc(Cl)c1)CO2` [Compound 55, (R)-2,2′,2″-(10-(2-((2-((1-carboxy-4-((2-((5-(1-(3,5-dichlorophenyl)-3-(3,3-dimethylmorpholine-4-carbonyl)-7-methoxy-1,4-dihydrochromeno[4,3-c]pyrazol-8-yl)pyridin-3-yl)amino)-2-oxoethyl)amino)-4-oxobutyl)amino)-2-oxoethyl)amino)-2-oxoethyl)-1,4,7,10-tetraazacyclododecane-1,4,7-triyl)triacetic acid--2,2,2-trifluoroacetic acid (1/1)], which EC50 is on record?
**A.** 10 to 100 nM

**Q.** With `COc1cc2c(cc1-c1cccc(NC(=O)CCOCCOCCOCCOCCOCCOCCNC(=O)CN3CCN(CC(=O)O)CCN(CC(=O)O)CCN(CC(=O)O)CC3)c1)-c1c(c(C(=O)N(C)C(C)(C)C)nn1-c1cc(Cl)cc(Cl)c1)CO2` [Compound 3A, indium (III) 2,2′,2″-(10-(24-((3-(3-(tert-butyl(methyl)carbamoyl)-1-(3,5-dichlorophenyl)-7-methoxy-1,4-dihydrochromeno[4,3-c]pyrazol-8-yl)phenyl)amino)-2,24-dioxo-6,9,12,15,18,21-hexaoxa-3-azatetracosyl)-1,4,7,10-tetraazacyclododecane-1,4,7-triyl)triacetate] as the compound, how does the EC50 read?
**A.** < 10 nM

**Q.** With `COc1cc2c(cc1-c1cccc(NC(=O)CCOCCOCCOCCOCCNC(=O)[C@H](CS(=O)(=O)O)NC(=O)CN3CCN(CC(=O)O)CCN(CC(=O)O)CCN(CC(=O)O)CC3)c1)-c1c(c(C(=O)N3CCOCC3(C)C)nn1-c1cc(Cl)cc(Cl)c1)CO2` [Compound 26A, indium (III) (R)-2,2′,2″-(10-(21-((3-(1-(3,5-dichlorophenyl)-3-(3,3-dimethylmorpholine-4-carbonyl)-7-methoxy-1,4-dihydrochromeno[4,3-c]pyrazol-8-yl)phenyl)amino)-2,5,21-trioxo-4-(sulfomethyl)-9,12,15, 18-tetraoxa-3,6-diazahenicosyl)-1,4,7,10-tetraazacyclododecane-1,4,7-triyl)triacetate] as the compound, how does the EC50 read?
**A.** < 10 nM

**Q.** Which EC50 does the source give for `COc1cc2c(cc1-c1cccc(NC(=O)CCC(=O)NCCCC[C@@H](NC(=O)[C@@H](CCC(=O)O)NC(=O)[C@@H](CCC(=O)O)NC(=O)[C@@H](C)NC(=O)CN3CCN(CC(=O)O)CCN(CC(=O)O)CCN(CC(=O)O)CC3)C(=O)N[C@H](CCC(=O)O)C(=O)N[C@H](CCC(=O)O)C(=O)N[C@H](C)C(N)=O)c1)-c1c(c(C(=O)N3CCOCC3(C)C)nn1-c1cc(Cl)cc(Cl)c1)CO2` [Compound 88] ({DOTA}-[dA][dE][dE][dK]([Suc-X1])[dE][dE][dA]-NH2) here?
**A.** 10 to 100 nM

**Q.** Which EC50 does the source give for `COc1cc2c(cc1-c1ccc(NC(=O)NCCOCCOCCOCCOCCOCCOCCNC(=O)CN3CCN(CC(=O)O)CCN(CC(=O)O)CCN(CC(=O)O)CC3)cc1)-c1c(c(C(=O)N(C)C(C)(C)C)nn1-c1cc(Cl)cc(Cl)c1)CO2` [Compound 5, 2,2′,2″-(10-(1-((4-(3-(tert-butyl(methyl)carbamoyl)-1-(3,5-dichlorophenyl)-7-methoxy-1,4-dihydrochromeno[4,3-c]pyrazol-8-yl)phenyl)amino)-1,24-dioxo-5,8,11,14,17,20-hexaoxa-2,23-diazapentacosan-25-yl)-1,4,7,10-tetraazacyclododecane-1,4,7-triyl)triacetic acid] here?
**A.** 10 to 100 nM

**Q.** With `COc1cc2c(cc1-c1cccc(NC(=O)CCOCCOCCOCCOCCNC(=O)[C@@H](CS(=O)(=O)O)NC(=O)CN3CCN(CC(=O)O)CCN(CC(=O)O)CCN(CC(=O)O)CC3)c1)-c1c(c(C(=O)N3CCOCC3(C)C)nn1-c1cc(Cl)cc(Cl)c1)CO2` [Compound 26, (S)-2,2′,2″-(10-(21-((3-(1-(3,5-dichlorophenyl)-3-(3,3-dimethylmorpholine-4-carbonyl)-7-methoxy-1,4-dihydrochromeno[4,3-c]pyrazol-8-yl)phenyl)amino)-2,5,21-trioxo-4-(sulfomethyl)-9,12,15,18-tetraoxa-3,6-diazahenicosyl)-1,4,7,10-tetraazacyclododecane-1,4,7-triyl)triacetic acid] as the compound, how does the EC50 read?
**A.** < 10 nM

Same assay, conditions: hFSHR Agonist cAMP EC50, CHO-K1 human FSHR cells, 30 minutes at 37° C., HTRF cAMP kit

**Q.** With `COc1cc2c(cc1-c1cncc(NC(=O)CCNC(=O)[C@@H](CCCCNC(=O)CN3CCN(CC(=O)O)CCN(CC(=O)O)CCN(CC(=O)O)CC3)NC(=O)CN3CCN(CCS(=O)(=O)O)CC3)c1)-c1c(c(C(=O)N3CCOCC3(C)C)nn1-c1cc(F)cc(F)c1)CO2` [Compound 50, (R)-2,2′,2″-(10-(2-((6-((3-((5-(1-(3,5-difluorophenyl)-3-(3,3-dimethylmorpholine-4-carbonyl)-7-methoxy-1,4-dihydrochromeno[4,3-c]pyrazol-8-yl)pyridin-3-yl)amino)-3-oxopropyl)amino)-6-oxo-5-(2-(4-(2-sulfoethyl)piperazin-1-yl)acetamido)hexyl)amino)-2-oxoethyl)-1,4,7,10-tetraazacyclododecane-1,4,7-triyl)triacetic acid--formic acid (1/1)] as the compound, how does the EC50 read?
**A.** > 100 nM
